For assay [1], the target named is Ephrin type-A receptor 2 (Homo sapiens) (UniProt P29317). In words: EPHA2 Invitrogen Lab (UK) kinase screen (BI). As to conditions: Compound concentration 1.0 uM.
Assay [2] concerns the target Insulin receptor (Homo sapiens) (UniProt P06213). In words: INSR Invitrogen Lab (UK) kinase screen (BI). The note with it: Compound concentration 1.0 uM.
Assay [3] concerns the target Tyrosine-protein kinase ITK/TSK (Homo sapiens) (UniProt Q08881). In words: ITK Invitrogen Lab (UK) kinase screen (BI). As to conditions: Compound concentration 1.0 uM.
Assay [4] addresses Leucine-rich repeat serine/threonine-protein kinase 2 (Homo sapiens) (UniProt Q5S007). Kind of assay: LRRK2 Invitrogen Lab (UK) kinase screen (BI). The note with it: Compound concentration 1.0 uM.
The target of assay [5] is Dual specificity mitogen-activated protein kinase kinase 6 (Homo sapiens) (UniProt P52564). Kind of assay: MAP2K6 Invitrogen Lab (UK) kinase screen (BI). The note with it: Compound concentration 1.0 uM.
For assay [6], the target named is MAP kinase-activated protein kinase 2 (Homo sapiens) (UniProt P49137). In words: MAPKAPK2 Invitrogen Lab (UK) kinase screen (BI). As to conditions: Compound concentration 1.0 uM.
Assay [7] concerns the target RAF proto-oncogene serine/threonine-protein kinase (Homo sapiens) (UniProt P04049). Kind of assay: RAF1 Invitrogen Lab (UK) kinase screen (BI). As to conditions: Compound concentration 1.0 uM.
The target in assay [8] is 5-hydroxytryptamine receptor 1B (Homo sapiens) (UniProt P28222). The note with it: Compound concentration 10.0 uM.
Chain of 5-hydroxytryptamine receptor 1B (Homo sapiens) (P28222 whole entry): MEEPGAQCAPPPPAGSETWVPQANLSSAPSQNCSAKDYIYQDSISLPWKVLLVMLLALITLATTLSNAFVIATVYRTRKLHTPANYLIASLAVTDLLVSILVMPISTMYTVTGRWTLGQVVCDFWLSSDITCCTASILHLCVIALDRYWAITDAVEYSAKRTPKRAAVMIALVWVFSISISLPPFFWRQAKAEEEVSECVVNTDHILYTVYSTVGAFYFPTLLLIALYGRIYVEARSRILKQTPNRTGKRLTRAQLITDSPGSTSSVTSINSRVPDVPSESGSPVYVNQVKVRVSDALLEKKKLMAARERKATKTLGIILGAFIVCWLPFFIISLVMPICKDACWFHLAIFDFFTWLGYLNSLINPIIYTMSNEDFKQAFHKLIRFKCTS
Assay [9] deals with 5-hydroxytryptamine receptor 1D (Homo sapiens) (UniProt P28221). As to conditions: Compound concentration 10.0 uM.
Chain of 5-hydroxytryptamine receptor 1D (Homo sapiens) (P28221 whole entry): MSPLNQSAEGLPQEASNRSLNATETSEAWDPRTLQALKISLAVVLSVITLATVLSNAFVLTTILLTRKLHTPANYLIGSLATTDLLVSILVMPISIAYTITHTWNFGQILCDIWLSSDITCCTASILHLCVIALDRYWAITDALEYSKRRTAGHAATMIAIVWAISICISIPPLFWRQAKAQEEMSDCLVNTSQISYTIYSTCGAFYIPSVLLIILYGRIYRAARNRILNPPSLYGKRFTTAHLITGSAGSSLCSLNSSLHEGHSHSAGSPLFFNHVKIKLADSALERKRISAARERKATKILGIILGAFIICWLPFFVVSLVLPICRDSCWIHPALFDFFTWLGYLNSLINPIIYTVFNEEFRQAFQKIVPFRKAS
Assay [10] has as its target 5-hydroxytryptamine receptor 2A (Homo sapiens) (UniProt P28223). As to conditions: Compound concentration 10.0 uM.
The target of assay [11] is 5-hydroxytryptamine receptor 5A (Homo sapiens) (UniProt P47898). As to conditions: Compound concentration 10.0 uM.
Chain of 5-hydroxytryptamine receptor 5A (Homo sapiens) (P47898 whole entry): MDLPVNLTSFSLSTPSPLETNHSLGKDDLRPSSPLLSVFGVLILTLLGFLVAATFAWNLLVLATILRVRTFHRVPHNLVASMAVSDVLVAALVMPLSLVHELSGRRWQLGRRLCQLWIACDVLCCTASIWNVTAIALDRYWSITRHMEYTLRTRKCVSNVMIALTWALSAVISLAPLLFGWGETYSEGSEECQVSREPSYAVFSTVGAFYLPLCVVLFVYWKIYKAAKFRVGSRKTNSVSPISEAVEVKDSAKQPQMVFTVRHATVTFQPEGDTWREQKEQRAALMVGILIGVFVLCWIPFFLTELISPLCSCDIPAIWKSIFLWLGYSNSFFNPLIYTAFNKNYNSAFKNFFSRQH
Assay [12] deals with 5-hydroxytryptamine receptor 7 (Homo sapiens) (UniProt P34969). The note with it: Compound concentration 10.0 uM.
Chain of 5-hydroxytryptamine receptor 7 (Homo sapiens) (P34969 whole entry): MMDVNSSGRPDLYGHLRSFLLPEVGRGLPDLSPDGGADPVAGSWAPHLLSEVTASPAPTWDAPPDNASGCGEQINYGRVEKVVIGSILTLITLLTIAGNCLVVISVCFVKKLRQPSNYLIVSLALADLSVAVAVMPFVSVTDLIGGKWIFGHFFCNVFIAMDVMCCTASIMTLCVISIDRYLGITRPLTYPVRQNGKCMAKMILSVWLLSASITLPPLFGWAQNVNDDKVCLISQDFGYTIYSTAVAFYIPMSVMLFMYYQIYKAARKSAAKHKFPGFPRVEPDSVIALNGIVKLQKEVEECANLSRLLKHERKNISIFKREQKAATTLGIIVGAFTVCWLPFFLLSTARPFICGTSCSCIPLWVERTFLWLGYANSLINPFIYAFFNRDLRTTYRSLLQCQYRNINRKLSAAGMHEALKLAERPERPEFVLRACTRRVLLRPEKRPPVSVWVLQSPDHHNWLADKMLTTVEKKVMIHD
In assay [13] the target is D(1A) dopamine receptor (Homo sapiens) (UniProt P21728). As to conditions: Compound concentration 10.0 uM.
Chain of D(1A) dopamine receptor (Homo sapiens) (P21728 whole entry): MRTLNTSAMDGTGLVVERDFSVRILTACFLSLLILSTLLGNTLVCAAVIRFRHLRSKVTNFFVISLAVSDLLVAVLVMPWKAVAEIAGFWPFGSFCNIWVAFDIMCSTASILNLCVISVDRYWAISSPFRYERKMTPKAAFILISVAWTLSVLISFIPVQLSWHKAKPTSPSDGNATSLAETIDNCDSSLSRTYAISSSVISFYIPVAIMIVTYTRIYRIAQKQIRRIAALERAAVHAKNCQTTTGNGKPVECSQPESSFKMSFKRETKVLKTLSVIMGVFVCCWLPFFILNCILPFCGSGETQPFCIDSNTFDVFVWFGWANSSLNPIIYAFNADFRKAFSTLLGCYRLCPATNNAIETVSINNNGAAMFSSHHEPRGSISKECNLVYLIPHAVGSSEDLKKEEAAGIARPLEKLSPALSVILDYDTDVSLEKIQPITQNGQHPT
For assay [14], the target named is D(1B) dopamine receptor (Homo sapiens) (UniProt P21918). As to conditions: Compound concentration 10.0 uM.
Chain of D(1B) dopamine receptor (Homo sapiens) (P21918 whole entry): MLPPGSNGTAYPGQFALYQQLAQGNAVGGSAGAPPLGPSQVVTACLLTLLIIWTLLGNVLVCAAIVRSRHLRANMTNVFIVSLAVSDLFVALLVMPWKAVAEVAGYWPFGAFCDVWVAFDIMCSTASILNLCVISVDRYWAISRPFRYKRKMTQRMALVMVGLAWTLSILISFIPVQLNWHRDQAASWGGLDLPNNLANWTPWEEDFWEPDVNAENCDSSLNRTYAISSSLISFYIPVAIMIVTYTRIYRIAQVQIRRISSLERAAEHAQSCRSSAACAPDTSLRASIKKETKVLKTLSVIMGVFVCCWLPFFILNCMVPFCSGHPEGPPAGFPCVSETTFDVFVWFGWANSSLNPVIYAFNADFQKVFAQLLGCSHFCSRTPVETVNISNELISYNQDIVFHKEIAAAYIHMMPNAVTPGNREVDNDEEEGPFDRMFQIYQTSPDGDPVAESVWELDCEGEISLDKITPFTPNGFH
The target in assay [15] is Delta-type opioid receptor (Homo sapiens) (UniProt P41143). The note with it: Compound concentration 10.0 uM.
Chain of Delta-type opioid receptor (Homo sapiens) (P41143 whole entry): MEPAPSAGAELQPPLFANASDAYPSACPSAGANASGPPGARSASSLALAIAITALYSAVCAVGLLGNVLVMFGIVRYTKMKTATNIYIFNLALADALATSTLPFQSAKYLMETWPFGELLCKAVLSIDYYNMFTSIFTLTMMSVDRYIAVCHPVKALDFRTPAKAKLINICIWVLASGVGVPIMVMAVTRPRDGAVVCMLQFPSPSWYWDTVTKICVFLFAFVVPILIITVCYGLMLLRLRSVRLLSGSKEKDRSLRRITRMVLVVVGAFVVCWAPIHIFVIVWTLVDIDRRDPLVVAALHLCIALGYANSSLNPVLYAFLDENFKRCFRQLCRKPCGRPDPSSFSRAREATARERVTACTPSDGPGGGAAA
The target in assay [16] is Kappa-type opioid receptor (Homo sapiens) (UniProt P41145). The note with it: Compound concentration 10.0 uM.
Chain of Kappa-type opioid receptor (Homo sapiens) (P41145 whole entry): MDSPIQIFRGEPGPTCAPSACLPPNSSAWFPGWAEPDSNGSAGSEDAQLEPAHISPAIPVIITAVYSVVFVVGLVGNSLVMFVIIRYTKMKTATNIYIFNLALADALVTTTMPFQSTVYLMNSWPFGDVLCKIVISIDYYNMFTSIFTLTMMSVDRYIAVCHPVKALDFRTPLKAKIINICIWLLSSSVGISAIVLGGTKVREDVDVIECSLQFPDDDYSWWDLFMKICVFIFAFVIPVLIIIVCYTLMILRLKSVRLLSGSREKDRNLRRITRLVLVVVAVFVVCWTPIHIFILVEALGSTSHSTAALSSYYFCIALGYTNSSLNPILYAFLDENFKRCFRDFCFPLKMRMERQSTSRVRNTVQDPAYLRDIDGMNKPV
In assay [17] the target is Histamine H3 receptor (Homo sapiens) (UniProt Q9Y5N1). As to conditions: Compound concentration 10.0 uM.
Chain of Histamine H3 receptor (Homo sapiens) (Q9Y5N1 whole entry): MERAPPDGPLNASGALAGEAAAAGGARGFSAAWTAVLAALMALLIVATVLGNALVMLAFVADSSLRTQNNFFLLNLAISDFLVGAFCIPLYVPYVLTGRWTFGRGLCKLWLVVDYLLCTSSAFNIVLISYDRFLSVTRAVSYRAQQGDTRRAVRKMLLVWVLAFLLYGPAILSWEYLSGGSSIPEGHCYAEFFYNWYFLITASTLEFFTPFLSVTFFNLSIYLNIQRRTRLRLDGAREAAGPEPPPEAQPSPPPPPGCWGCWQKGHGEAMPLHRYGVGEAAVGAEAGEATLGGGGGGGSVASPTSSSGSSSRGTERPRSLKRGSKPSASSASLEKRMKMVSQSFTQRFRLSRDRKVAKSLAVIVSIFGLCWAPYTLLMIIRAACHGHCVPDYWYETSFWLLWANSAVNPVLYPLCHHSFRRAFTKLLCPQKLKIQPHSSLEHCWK
The target in assay [18] is B-cell CLL/lymphoma 6 member B protein (Homo sapiens, UniProt Q8N143). Kind of assay: SPR (BCL6B), Ontario institute for cancer research.
Chain of B-cell CLL/lymphoma 6 member B protein (Q8N143 whole entry): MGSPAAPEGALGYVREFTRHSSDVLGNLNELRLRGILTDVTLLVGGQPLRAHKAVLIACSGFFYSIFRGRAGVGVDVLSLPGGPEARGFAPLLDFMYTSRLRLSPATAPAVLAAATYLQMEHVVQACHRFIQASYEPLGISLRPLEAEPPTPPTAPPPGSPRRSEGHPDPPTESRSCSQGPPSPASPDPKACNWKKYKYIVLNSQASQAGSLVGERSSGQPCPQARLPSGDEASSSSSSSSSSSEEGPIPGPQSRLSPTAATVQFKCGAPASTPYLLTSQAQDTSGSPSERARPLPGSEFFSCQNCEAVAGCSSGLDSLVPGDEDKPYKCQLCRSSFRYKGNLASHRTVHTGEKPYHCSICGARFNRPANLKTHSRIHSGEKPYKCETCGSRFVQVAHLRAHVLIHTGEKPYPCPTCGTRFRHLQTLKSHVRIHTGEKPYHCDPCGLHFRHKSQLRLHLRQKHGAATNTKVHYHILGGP

Molecules are shown by their SMILES.

Chain of 5-hydroxytryptamine receptor 2A (Homo sapiens) (P28223 whole entry): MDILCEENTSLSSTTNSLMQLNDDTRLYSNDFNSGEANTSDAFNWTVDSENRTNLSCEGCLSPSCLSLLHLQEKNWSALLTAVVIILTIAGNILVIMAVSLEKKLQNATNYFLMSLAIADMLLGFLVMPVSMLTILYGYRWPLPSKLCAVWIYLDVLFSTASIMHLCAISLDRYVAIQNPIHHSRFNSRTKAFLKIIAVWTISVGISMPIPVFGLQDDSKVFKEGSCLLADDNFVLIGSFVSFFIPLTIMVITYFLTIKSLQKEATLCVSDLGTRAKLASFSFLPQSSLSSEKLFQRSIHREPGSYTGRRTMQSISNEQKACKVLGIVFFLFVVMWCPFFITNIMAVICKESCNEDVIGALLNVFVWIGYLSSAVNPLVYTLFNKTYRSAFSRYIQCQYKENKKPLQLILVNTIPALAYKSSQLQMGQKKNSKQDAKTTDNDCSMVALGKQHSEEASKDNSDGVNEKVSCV

What is called inhibition is the relative decrease from the control value, in per cent. `CNC(=O)COc1cc2cc(Nc3nc(N4C[C@H](C)C[C@H](C)C4)ncc3Cl)ccc2n(C)c1=O`: the residual activity was 97% in assay [1]; 100% in [2]; 100% in [3]; 78% in assay [4]; 84% in assay [5]; 102% in assay [6]. Also, the residual activity in assay [7] was 94%. The inhibition is 8.61% in [8]; 13.7% in assay [9]; -1.56% in [10]; 0.2% in assay [11]; 15.5% in assay [12]; -4.07% in assay [13]. In addition, the inhibition in assay [14] is 1.96%; in [15], 13.3%; in assay [16], 33.5%; in assay [17], 12.7%.
Turning to `C[C@@H]1C[C@H](C)CN(c2ncc(Cl)c(Nc3ccc4c(c3)cc(OC(C)(C)C(=O)O)c(=O)n4C)n2)C1`, the Kd entry in assay [18] is given as “No binding”.

For the origin of these results see ChEMBL document CHEMBL5303763, “Data for DCP probe BI-3802” (2023).
